*1 amine or outer side, *2 acyl side, *3 side chain or, on linkers, in order; H or OH if unused. Where a SMILES comes first, the peptide text is derived from it. [ ]: non-standard residue; d: D form. X1 = COCCN1CCN(C[C@H](C)[C@@H](C(=O)[*:2])N(C)[*:1])CC1; MeBmt = C/C=C/C[C@@H](C)[C@@H](O)[C@H](NC)C(=O)O; NMeL = CN[C@@H](CC(C)C)C(=O)O; NMeV = CN[C@H](C(=O)O)C(C)C; dNMeA = CN[C@H](C)C(=O)O; Abu = CC[C@H](N)C(=O)O
Legend:
[1] = system: α3WT/α4WT/α5G1241V collagen trimer (COL4a5/G1241V); type: cell-based, Human
calcineurin = details: cited from earlier work
[2] = system: α345 (COL4A5-G1244D) collagen trimer; assay: Type IV collagen α345 trimer assay by Nano luciferase, COL4A5-G1244D stable line; type: cell-based, Human; details: for secretion level of collagen trimer as a function of concentration: COL4A5 (G1244D), concentration series up to 10 μM, FIG. 1-3; for collagen trimer secretion (luminescence of culture supernatant, ratio to DMSO-treated group): HEK293T line stably expressing α345 (COL4A5-G1244D), 24 hr treatment
Protocol: (§1) HEK293T cells (Human Embryonic Kidney 293) were obtained from the RIKEN Cell Bank, and thereafter addition of virus concentration solution for COL4A4-3FLAG (Puro), COL4A3-SmBiT (Hyg), COL4A5-LgBiT (BSD) (Omachi K. et al., Cell Chemical Biology 2018, 25, 634-643) in this order, exchange of drug resistance containing medium, passage and preservation of surviving cells were repeated whereby a cell line stably expressing α345 (IV) trimer was generated. COL4A5 variant G1244D was prepared using pLVSIN EF1α BSD COL4A5-LgBiT as a template and using Quikchange (registered trade mark) II Site-directed Mutagenesis Kit (STRATAGENE (registered trade mark)). The primers used were follows. PCR reactions (95° C. for 1 min, one cycle; 95° C. for 50 sec, 60° C. for 50 sec, 68° C. for 90 sec/1 kb, 18 cycles; 68° C. for […]) were performed with each Primer. The base sequence of DNA was confirmed by the cycle sequence method (Sigma-Aldrich JAPAN).
(§2) A cell line stably expressing split nano luciferase-fused α345 required for the NanoLuc α345 trimer assay was seeded on LumiNuc 96 well white plate (Thermo). After 24 hr, the cells were cultured in phenol red-free DMEM complete medium containing 2-phosphate ascorbic acid (200 μM), substrates were added to the culture supernatant and cells according to the standard method of NanoGlo live cell assay (Promega) reagent, and luminescence was confirmed with luminometer GloMax Navigator (Promega).
The cell line stably expressing α345 (COL4A5-G1244D) was detached and seeded on LumiNuc 96 well white plate (Thermo) at a density of 2×10^4 cells/well. 24 hr after seeding, the medium was exchanged with a phenol red-free DMEM complete medium containing 2-phosphate ascorbic acid (200 μM) and each concentration of cyclosporin A (CsA) (0.1, 0.5, 1, 2, 5, 10 μM), or each concentration of PSC-833 (0.5, 1, 2, 5, 10 μM), or each concentration of Alisporivir (0.1, 0.5, 5, 10 μM) and the cells were cultured. A substrate was added 24 hr later to the culture supernatant according to the standard method of NanoGlo live cell assay (Promega) reagent, and luminescence (index of trimer secretion) was measured by luminometer GloMax Navigator (Promega). The control solvent (CON) used was dimethyl sulfoxide (DMSO).

PPIF (cyclophilin D) [3] = molecular target: T1, PPIF (cyclophilin D) (Homo sapiens, UniProt P30405); assay: Collagen trimer secreting ability of G1244D HEK293T cells after knock-down of cyclophilins with siRNA; type: cell-based; details: G1244D mutant-transfected HEK293T cells, FIG. 9
T1 construct: endogenous in cells; host or cells: HEK293T stably expressing split-NanoLuc alpha345 (COL4A5-G1244D), with or without siRNA knock-down
T1 sequence (P30405 30-207): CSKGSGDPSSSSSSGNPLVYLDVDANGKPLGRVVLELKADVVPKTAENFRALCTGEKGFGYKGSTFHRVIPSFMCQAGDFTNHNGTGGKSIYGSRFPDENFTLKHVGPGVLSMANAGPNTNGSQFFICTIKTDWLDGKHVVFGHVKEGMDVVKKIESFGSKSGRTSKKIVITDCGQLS
Protocol: (§3) An cell line stably expressing split nano luciferase-fused α345 required for the NanoLuc α345 trimer assay was seeded on a 6 well plate (Corning) at 3×10^5 cells/well, and the siRNAs shown in Table 1 were introduced by lipofection at the time of subconfluence. The target genes are all cyclophilins, and the abbreviations in Table 1 indicate the following substances.
(§4) Lipofectamine RNAi Max was used for transfection of siRNA. The final siRNA concentration was adjusted to 15 nM, and transfection was performed according to the standard protocol. 24 hr after siRNA introduction, the cells were detached and reseeded on a LumiNuc 96 well white plate (Thermo) at 4×10^4 cells/well. 24 hr thereafter, the medium was exchanged with a phenol red-free DMEM complete medium containing 2-phosphate ascorbic acid (200 μM) and Cyclosporin A (CsA) (1 μM), or Alisporivir (2 μM) and the cells were cultured. Substrates were added 24 hr later to the culture supernatant and cells according to the standard method of NanoGlo live cell assay (Promega) reagent, and luminescence (index of trimer secretion) was measured by luminometer GloMax Navigator (Promega). The control solvent (CON) used was DMSO. […]

[4] = system: α3WT/α4WT/α5WT collagen trimer (COL4a5/WT); assay: Type IV collagen α345 trimer assay by Nano luciferase, wild-type COL4A5 stable line; type: cell-based, Human; details: wild-type stable cell line, FIG. 5 upper
Protocol: as §1, with “The base sequence of DNA was confirmed by the cycle sequence method (Sigma-Aldrich JAPAN).” left out
as §2, with “(Promega). […]” for “(Promega).”

[5] = system: COL4A5 AS mutants (G227S, G594D, G624D, G869R, S916G, G1030S, G1107R, G1140V, G1220D, G1241C, G1241V, G1244D, P1517T, R1569Q) and Exon41-deleted variant; type: cell-based, Human; details: panel of 14 AS mutants, Exon41-deleted variant and wild type, FIG. 7
PPIF (cyclophilin D) [6] = molecular target: T1, PPIF (cyclophilin D); assay: Collagen trimer secretion promotion in G1244D HEK293T cells with cyclophilins knocked down with siRNA; type: cell-based; details: siRNA 15 nM against 11 cyclophilins, CsA 1 μM, Alisporivir 2 μM, FIG. 8
Description: To elucidate the mechanism of collagen trimer secretion promotion by CsA and Alisporivir, cells in which cyclophilins to which CsA and Alisporivir can bind were knocked down with siRNA were produced, and the collagen trimer secretion promoting effect by CsA and Alisporivir in the cells was investigated comprehensively.
As the cells, G1244D mutation-introduced HEK293T cells—for which the effect of CsA and Alisporivir were confirmed in previous experiments—were used.
as §3
as §4, with “24 hr thereafter, the medium was exchanged with a phenol red-free DMEM complete medium containing 2-phosphate ascorbic acid (200 μM) and Cyclosporin A (CsA) (1 μM), or Alisporivir (2 μM) and the cells were cultured.” left out, “(Promega).” for “(Promega). The control solvent (CON) used was DMSO.”

[7] = clinical trials (Zeuzem 2015; Buti 2015); cited from earlier work

C/C=C/C[C@@H](C)[C@@H](O)[C@H]1C(=O)N[C@@H](CC)C(=O)N(C)[C@H](C)C(=O)N(C)[C@@H]([C@@H](C)CN2CCN(CCOC)CC2)C(=O)N[C@@H](C(C)C)C(=O)N(C)[C@@H](CC(C)C)C(=O)N[C@@H](C)C(=O)N[C@H](C)C(=O)N(C)[C@@H](CC(C)C)C(=O)N(C)[C@@H](CC(C)C)C(=O)N(C)[C@@H](C(C)C)C(=O)N1C [NIM258] (cyclo(A[dA][NMeL][NMeL][NMeV][MeBmt][Abu][dNMeA][X1]V[NMeL]))
extracellular secretion of collagen trimer compared with DMSO-administered group ([1]; 5 μM or 10 μM, G1241V cell line per FIG. 6): extracellular secretion of collagen trimers was promoted | calcineurin inhibition (calcineurin): does not inhibit calcineurin

C/C=C/C[C@@H](C)C(=O)[C@H]1C(=O)N[C@@H](C(C)C)C(=O)N(C)CC(=O)N(C)[C@@H](CC(C)C)C(=O)N[C@@H](C(C)C)C(=O)N(C)[C@@H](CC(C)C)C(=O)N[C@@H](C)C(=O)N[C@H](C)C(=O)N(C)[C@@H](CC(C)C)C(=O)N(C)[C@@H](CC(C)C)C(=O)N(C)[C@@H](C(C)C)C(=O)N1C [PSC-833]
secretion level of collagen trimer as a function of concentration [2]: does not increase even when the amount of PSC-833 is increased to 10 μM | intracellular expression level of collagen trimer ([2]; COL4A5-G1244D line, PSC-833 0.5-10 μM): did not affect | collagen trimer secretion (luminescence of culture supernatant, ratio to DMSO-treated group) [2]: did not affect collagen trimer secretion | calcineurin inhibition (calcineurin): does not inhibit calcineurin

siPPIF: siRNA against human PPIF (cyclophilin D), sense GGCAGAUGUCGUCCCAAAG, antisense CUUUGGGACGACAUCUGCC (SEQ ID NO: 27/28) (listed as RNA, chemistry not given here)
secretion level of collagen trimer, ratio to siGL2-treated group (PPIF (cyclophilin D) [3]): promotion of collagen trimer secretion was confirmed

C/C=C/C[C@@H](C)[C@@H](O)[C@H]1C(=O)N[C@@H](CC)C(=O)N(C)[C@H](C)C(=O)N(CC)[C@@H](C(C)C)C(=O)N[C@@H](C(C)C)C(=O)N(C)[C@@H](CC(C)C)C(=O)N[C@@H](C)C(=O)N[C@H](C)C(=O)N(C)[C@@H](CC(C)C)C(=O)N(C)[C@@H](CC(C)C)C(=O)N(C)[C@@H](C(C)C)C(=O)N1C [Alisporivir]
secretion level of collagen trimer as a function of concentration [2]: increases depending on the concentration of Alisporivir | action of promoting collagen trimer secretion compared with CsA ([2]; COL4A5-G1244D, concentrations of 5 μM and 10 μM, FIG. 4): stronger action of promoting collagen trimer secretion than CsA | collagen trimer secretion (luminescence of culture supernatant, ratio to DMSO-treated group) [2]: showed an action of promoting collagen trimer secretion | secretion of trimers of COL4a5/WT-containing collagen [4]: did not show an influence on COL4a5/WT | extracellular secretion of collagen trimers, COL4a5/G1241V ([1]; G1241V stable cell line, FIG. 5 lower): promoted extracellular secretion of collagen trimers | collagen trimer secretion in COL4A5 variants [5]: exhibited a significant effect in G1030S, G1107R, G1220D, G1241C, G1241V, G1244D, and Exon41-deleted variants | effect of promoting the secretion of collagen trimers in cyclophilin knock-down cells (PPIF (cyclophilin D) [6]): decreased only in the cells knocked down with PPIF (cyclophilin D) | calcineurin inhibition (calcineurin): does not inhibit calcineurin | nephrotoxicity in clinical trials [7]: no nephrotoxicity
